Test results published in patent publication US20200352921A1, “ARYL-SULFONAMIDE AND ARYL-SULFONE DERIVATIVES AS TRPML MODULATORS” (CalyGene Biotechnolgy, Inc., priority 2017, published 2020).
Read-outs that look alike come from different tables or passages of the source.

How the values were obtained:
Assay type in all cases: cell-based
ML1 channel = biological target: T1, ML1 channel (Homo sapiens, UniProt Q9GZU1); assay: Endolysosomal electrophysiology (whole-endolysosome patch-clamp)
T1 construct: host or cells: unnamed cells treated with vacuolin-1; isolated enlarged endolysosomes
T1 sequence (Q9GZU1 whole entry): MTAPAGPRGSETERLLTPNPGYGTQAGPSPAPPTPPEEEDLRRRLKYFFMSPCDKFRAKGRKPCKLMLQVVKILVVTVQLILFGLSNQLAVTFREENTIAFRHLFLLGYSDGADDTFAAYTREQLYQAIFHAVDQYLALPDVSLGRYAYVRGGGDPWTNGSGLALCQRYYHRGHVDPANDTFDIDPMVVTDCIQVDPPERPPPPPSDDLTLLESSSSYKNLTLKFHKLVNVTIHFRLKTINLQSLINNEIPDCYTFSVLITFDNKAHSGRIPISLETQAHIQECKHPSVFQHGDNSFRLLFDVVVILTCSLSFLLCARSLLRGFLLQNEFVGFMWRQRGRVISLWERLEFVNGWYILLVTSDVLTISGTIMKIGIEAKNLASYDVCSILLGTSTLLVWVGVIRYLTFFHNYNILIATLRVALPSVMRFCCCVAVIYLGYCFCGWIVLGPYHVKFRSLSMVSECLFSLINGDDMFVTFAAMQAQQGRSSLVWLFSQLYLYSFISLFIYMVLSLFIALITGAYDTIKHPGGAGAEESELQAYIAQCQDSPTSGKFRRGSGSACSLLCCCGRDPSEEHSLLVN
Protocol: Endolysosomal electrophysiology was performed in isolated endolysosomes using a modified patch-clamp method. Briefly, cells were treated with 1 μM vacuolin-1 for 2-5 h to increase the size of endosomes and lysosomes. Whole-endolysosome recordings were performed on isolated enlarged LELs. The bath (internal/cytoplasmic) solution contained 140 mM K-gluconate, 4 mM NaCl, 1 mM EGTA, 2 mM Na2-ATP, 2 mM MgCl2, 0.39 mM CaCl2), 0.2 mM GTP and 10 mM HEPES (pH adjusted with KOH to 7.2; free [Ca^2+]i˜100 nM based on the Maxchelator software (http://maxchelator.stanford.edu/)). The pipette (luminal) solution consisted of a ‘Low pH Tyrode's solution with 145 mM NaCl, 5 mM KCl, 2 mM CaCl2), 1 mM MgCl2, 10 mM HEPES, 10 mM MES and 10 mM glucose (pH 4.6). All bath solutions were applied via a perfusion system to achieve a complete solution exchange within a few seconds. Data were collected using an Axopatch 2A patch clamp amplifier, Digidata 1440 and pClamp 10.0 software (Axon Instruments). Whole-cell currents were digitized at 10 kHz and filtered at 2 kHz. All experiments were conducted at room temperature (21-23° C.), and all recordings were analyzed with pClamp 10.0 and Origin 8.0 (OriginLab, Northampton, Mass., USA). ML1 channel activity was induced by synthetic agonists ML-SA1 or […], and inhibited by ML-S13 or ML-S14.
In this electrophysiology assays, compounds were tested with both basal and agonist-induced ML1 currents. Examples B11, B11a, B11b, B40, B41, B44, B5, B47, B48, B49, B50, B51, B54, B57, B58, B59, B62, B63, B68, B69, B71, B72, B75, B75, and B76 were tested with basal ML1 currents. […] In particular, Examples B11, B11a and B11b inhibited basal ML1 currents with IC50<100 nM. Examples B11, B11a and B11b are shown below. Examples B1-4, B2-1, B-2-2, B2-3, B2-4, 3-4, B5, B6-2, B9-4, B-10, B-10-4, B11, B12, B13, B14, B15, B16, B18, B19, B20, B21, B22, B23, B25, B26, B27, B28, B29, B30, B32, B34, B40, B41, B44, B45, B46, B47, B48, B49, B50, B51, B52, B59, and B66 were tested in ML1 currents activated by ML1 agonists (ML-SA1 or ML-SA5). […] In particular, B11 inhibited the ML-SA1-activated currents with IC50<1,000 nM. Example B11 is shown below.

ML1 = biological target: T2, ML1 (UniProt Q99J21); assay: Lysosomal Ca2+ imaging in Tet-On HEK-GCaMP3-ML1 cells; conditions: zero Ca2+ solution, ML-SA1 trigger, read-out: inhibition of ML-SA1-induced lysosomal Ca2+ release, IC50
T2 construct: fused on or other part: GCaMP3 (genetically encoded Ca2+ indicator) fused to ML1 as the reporter handle; in the published construct it sits at the N-terminus
Protocol: GCaMP3-ML1 expression was induced in Tet-On HEK-GCaMP3-ML1 cells 20-24 h prior to experiments using […] doxycycline. GCaMP3-ML1 fluorescence was monitored at an excitation wavelength of 470 nm (F470) using an EasyRatio Pro system (PTI). Cells were bathed in Tyrode's solution containing 145 mM NaCl, 5 mM KCl, 2 mM CaCl2), 1 mM MgCl2, 10 mM Glucose, and 20 mM Hepes (pH 7.4). Lysosomal Ca^2+ release was measured in a zero Ca^2+ solution containing 145 mM NaCl, 5 mM KCl, 3 mM MgCl2, 10 mM glucose, 1 mM EGTA, and 20 mM HEPES (pH 7.4). Ca^2+ concentration in the nominally free Ca^2+ solution is estimated to be 1-10 μM. With 1 mM EGTA, the free Ca^2+ concentration is estimated to be <10 nM based on the Maxchelator software (http://maxchelator.stanford.edu/). Experiments were carried out 0.5 to 6 hrs after plating. ML1-mediated lysosomal Ca^2+ release was triggered by synthetic agonists ML-SA1, and inhibited by ML-S13 and aforementioned testing compounds.

cultured parietal cells = assay: Gastric acid secretion assay (histamine-stimulated VAC formation)
Protocol: Acid secretion was measured in cultured parietal cells upon histamine stimulation. Briefly, after mucosal digestion of isolated glands, supernatants were pelleted by centrifugation at 200×g, washed three times with HEPES-MEM, and re-suspended in Medium A. Approximately 70% of the total gastric cells suspended in Medium A were parietal cells. The cells were plated onto Matrigel-coated 18-mm round coverslips or 35-mm dishes and incubated at 37° C. In cultured parietal cells, upon secretagogue stimulation, apical canalicular membranes are engulfed into the cell to form multiple actin-wrapped vacuoles known as vacuolar apical compartments (VACs), which remain separate from the basolateral membrane and free TVs in the cytosol (Nakada, S. L., Crothers, J. M., Jr., Machen, T. E., and Forte, J. G. (2012). Apical vacuole formation by gastric parietal cells in primary culture: effect of low extracellular Ca2+. American journal of physiology Cell physiology 303, C1301-1311.). […] In resting WT cells, small (diameter <2 μm) VACs were observed occasionally with a total surface area <10 μm^2. VACs formed within 10-20 min after bath application of histamine and then fused together to generate one or a few large VACs (up to 8 μm in diameter; total VAC surface area >50 μm^2). The apical membrane vacuole surface area during resting and stimulated states was measured for all VACs that were visible in multiple (3-6) Z-cross sections. Data were analyzed in ImageJ (NIH).
In this acid secretion assay, histamine-stimulated VAC formation was abolished by ML-S4 at 10 μM (Zhang X, Cheng X, Yu L, Yang J, Calvo R, Patnaik S, Hu X, Gao Q, Yang M, Lawas M, Delling M, Marugan J, Ferrer M, and Xu H. 2016, PMID: 27357649).

[1] = basal ML1 currents, isolated enlarged endolysosomes, read-out: inhibition of basal ML1 currents, IC50

SMILES | IC50 (ML1 channel; [1]) [µM] | IC50 (ML1) [µM] | histamine-induced VAC formation (cultured parietal cells; at 0.5 μM) | histamine-induced VAC formation (cultured parietal cells; at 2 μM) | IC50 (ML1 channel; currents activated by ML1 agonist ML-SA1, read-out: inhibition of ML-SA1-activated ML1 currents, IC50) [µM]
Cc1ccc(S(=O)(=O)N2c3cc(F)ccc3CC[C@@H]2CCc2ccc(Cl)cc2F)cc1 [Example B11a] | < 0.1 |  |  |  | 
Cc1ccc(S(=O)(=O)N2c3cc(F)ccc3CC[C@H]2CCc2ccc(Cl)cc2F)cc1 [Example B11b] | < 0.1 | < 1 | significantly inhibited | abolished | 
Cc1ccc(S(=O)(=O)N2c3cc(F)ccc3CCC2CCc2ccc(Cl)cc2F)cc1 (stereo not drawn) [Example B11, 2-(4-Chloro-2-fluorophenethyl)-7-fluoro-1-tosyl-1,2,3,4-tetrahydroquinoline] | < 0.1 |  | significantly inhibited | abolished | < 1
